{"source": "patent US12582657B2", "about": "“Combination therapy including a KRAS G12C inhibitor and one or more additional pharmaceutically active agents for the treatment of cancers” (Amgen Inc., priority 2018, dated 2026)", "type_in_all_cases": "cell-based", "key": {"[1]": {"tested_on": "NCI-H2122 cells", "assay": "Spheroid cell viability assay (CellTiter-Glo 3D)", "settings": "Homo sapiens; NCI-H2122, lung, KRAS p.G12C homozygous; 72-hour treatment, spheroid culture", "procedure": "(§1) For spheroid viability assays, 2.5-4.0E+04 cells were seeded per well in 96-well spheroid microplates (Corning) and incubated at 37° C., 5% CO2 for 24 hours. The same procedure was followed as described above, except viability was measured using a CellTiter-Glo® 3D Cell Viability Assay kit (Promega) according to the manufacturer's protocol."}, "[2]": {"tested_on": "NCI-H1373 cells", "assay": "Spheroid cell viability assay (CellTiter-Glo 3D)", "settings": "Homo sapiens; NCI-H1373, lung, KRAS p.G12C homozygous; 72-hour treatment, spheroid culture", "procedure": "as §1"}, "[3]": {"tested_on": "NCI-H358 cells", "assay": "Spheroid cell viability assay (CellTiter-Glo 3D)", "settings": "Homo sapiens; NCI-H358, lung, KRAS p.G12C heterozygous; 72-hour treatment, spheroid culture", "procedure": "as §1"}, "[4]": {"tested_on": "MIA PaCa-2 cells", "assay": "Spheroid cell viability assay (CellTiter-Glo 3D)", "settings": "Homo sapiens; MIA PaCa-2, pancreas, KRAS p.G12C homozygous; 72-hour treatment, spheroid culture", "procedure": "as §1"}, "[5]": {"tested_on": "SW1573 cells", "assay": "Spheroid cell viability assay (CellTiter-Glo 3D)", "settings": "Homo sapiens; SW1573, lung, KRAS p.G12C homozygous; 72-hour treatment, spheroid culture", "procedure": "as §1"}, "[6]": {"tested_on": "NCI-H2122 cells", "assay": "Cell viability assay (CellTiter-Glo, adherent)", "settings": "Homo sapiens, NCI-H2122, lung, KRAS p.G12C homozygous, 72-hour treatment", "procedure": "(§2) For adherent viability assays, 0.5-1.0E+03 cells were seeded per well in 384-well plates (or 2.5-4.0E+04 cells per well in 96-well plates) and incubated at 37° C., 5% CO2, o/n. The following day, serially-diluted compound or DMSO was added to the cells, and the plates were incubated at 37° C., 5% CO2 for 72 hours. Cell viability was measured using a CellTiter-Glo® Luminescent Cell Viability Assay kit (Promega) according to the manufacturer's protocol. The luminescence signal of treated samples was normalized to DMSO control."}, "[7]": {"tested_on": "NCI-H1373 cells", "assay": "Cell viability assay (CellTiter-Glo, adherent)", "settings": "Homo sapiens, NCI-H1373, lung, KRAS p.G12C homozygous, 72-hour treatment", "procedure": "as §2"}, "[8]": {"tested_on": "NCI-H358 cells", "assay": "Cell viability assay (CellTiter-Glo, adherent)", "settings": "Homo sapiens, 72-hour treatment", "procedure": "as §2"}, "[9]": {"tested_on": "SW480 cells", "assay": "Cell viability assay (CellTiter-Glo, adherent)", "settings": "Homo sapiens, SW480, colon, KRAS p.G12V homozygous, 72-hour treatment", "procedure": "as §2"}, "[10]": {"tested_on": "NCI-H1355 cells", "assay": "Cell viability assay (CellTiter-Glo, adherent)", "settings": "Homo sapiens, NCI-H1355, lung, KRAS p.G13C heterozygous, 72-hour treatment", "procedure": "as §2"}, "[11]": {"tested_on": "A549 cells", "assay": "Cell viability assay (CellTiter-Glo, adherent)", "settings": "Homo sapiens, A549, lung, KRAS p.G12S homozygous, 72-hour treatment", "procedure": "as §2"}, "[12]": {"tested_on": "NCI-H2030 cells", "assay": "Cell viability assay (CellTiter-Glo, adherent)", "settings": "Homo sapiens, NCI-H2030, lung, KRAS p.G12C homozygous, 72-hour treatment", "procedure": "as §2"}, "[13]": {"tested_on": "Calu-1 cells", "assay": "Cell viability assay (CellTiter-Glo, adherent)", "settings": "Homo sapiens, Calu-1, lung, KRAS p.G12C heterozygous, 72-hour treatment", "procedure": "as §2"}, "[14]": {"tested_on": "KM12 cells", "assay": "Cell viability assay (CellTiter-Glo, adherent)", "settings": "Homo sapiens, KM12, colon, KRAS WT TPM3-NTRK fusion, 72-hour treatment", "procedure": "as §2"}, "[15]": {"tested_on": "A-427 cells", "assay": "Cell viability assay (CellTiter-Glo, adherent)", "settings": "Homo sapiens, A-427, lung, KRAS p.G12D heterozygous, 72-hour treatment", "procedure": "as §2"}, "[16]": {"tested_on": "UM-UC-3 cells", "assay": "Cell viability assay (CellTiter-Glo, adherent)", "settings": "Homo sapiens, UMUC3, UM-UC-3, bladder, KRAS p.G12C homozygous, 72-hour treatment", "procedure": "as §2"}, "[17]": {"tested_on": "HCC-827 cells", "assay": "Cell viability assay (CellTiter-Glo, adherent)", "settings": "Homo sapiens, HCC827, HCC-827, lung, KRAS WT EGFR p.E746_A750del, 72-hour treatment", "procedure": "as §2"}, "[18]": {"tested_on": "NCI-H1322 cells", "assay": "Cell viability assay (CellTiter-Glo, adherent)", "settings": "Homo sapiens, 72 h, read-out: Cell Viability IC50", "procedure": "as §2"}, "[19]": {"tested_on": "MIA PaCa-2 cells", "assay": "Cell viability assay (CellTiter-Glo, adherent)", "settings": "Homo sapiens, 72-hour treatment", "procedure": "as §2"}, "[20]": {"tested_on": "SW1573 cells", "assay": "Cell viability assay (CellTiter-Glo, adherent)", "settings": "Homo sapiens, SW1573, lung, KRAS p.G12C homozygous, 72-hour treatment", "procedure": "as §2"}, "[21]": {"tested_on": "COLO-205 cells", "assay": "Cell viability assay (CellTiter-Glo, adherent)", "settings": "Homo sapiens, COLO-205, colon, KRAS WT BRAF p.V600E, 72-hour treatment", "procedure": "as §2"}, "[22]": {"tested_on": "NCI-H1792 cells", "assay": "Cell viability assay (CellTiter-Glo, adherent)", "settings": "Homo sapiens, NCI-H1792, lung, KRAS p.G12C heterozygous, 72-hour treatment", "procedure": "as §2"}, "[23]": {"tested_on": "NCI-H23 cells", "assay": "Cell viability assay (CellTiter-Glo, adherent)", "settings": "Homo sapiens, NCI-H23, lung, KRAS p.G12C heterozygous, 72-hour treatment", "procedure": "as §2"}, "[24]": {"tested_on": "SW837 cells", "assay": "Cell viability assay (CellTiter-Glo, adherent)", "settings": "Homo sapiens, SW837, colon, KRAS p.G12C heterozygous, 72-hour treatment", "procedure": "as §2"}, "[25]": {"tested_on": "SW1463 cells", "assay": "Cell viability assay (CellTiter-Glo, adherent)", "settings": "Homo sapiens, SW1463, colon, KRAS p.G12C homozygous, 72-hour treatment", "procedure": "as §2"}, "[26]": {"tested_on": "LS 174T cells", "assay": "Cell viability assay (CellTiter-Glo, adherent)", "settings": "Homo sapiens, LS174T, colon, KRAS p.G12D heterozygous, 72-hour treatment", "procedure": "as §2"}, "[27]": {"tested_on": "AsPC-1 cells", "assay": "Cell viability assay (CellTiter-Glo, adherent)", "settings": "Homo sapiens, ASPC1, AsPC-1, pancreas, KRAS p.G12D homozygous, 72-hour treatment", "procedure": "as §2"}}}
{"molecule": "C=CC(=O)N1CCN(c2nc(=O)n(-c3c(C)ccnc3C(C)C)c3nc(-c4c(O)cccc4F)c(F)cc23)[C@@H](C)C1", "note": "(atropisomer, axis not shown) [AMG 510, 6-fluoro-7-(2-fluoro-6-hydroxyphenyl)-1-(4-methyl-2-(2-propanyl)-3-pyridinyl)-4-((2S)-2-methyl-4-(2-propenoyl)-1-piperazinyl)pyrido[2,3-d]pyrimidin-2(1H)-one]", "values": [{"measurement": "IC50", "setting": "[1]", "result": "9 ± 2", "unit": "nM"}, {"measurement": "IC50", "setting": "[2]", "result": "5 ± 2", "unit": "nM"}, {"measurement": "IC50", "setting": "[3]", "result": "3 ± 2", "unit": "nM"}, {"measurement": "IC50", "setting": "[4]", "result": "1 ± 1", "unit": "nM"}, {"measurement": "IC50", "setting": "[5]", "result": "> 10000", "unit": "nM"}, {"measurement": "IC50", "setting": "[6]", "result": "32 ± 5", "unit": "nM"}, {"measurement": "IC50", "setting": "[7]", "result": "20 ± 6", "unit": "nM"}, {"measurement": "IC50", "setting": "[8]; first of two lines (FIG. 40G: NCI-H358), read-out: cellular viability IC50", "result": "~6", "unit": "nM"}, {"measurement": "IC50", "setting": "[8]; NCI-H358, lung, KRAS p.G12C heterozygous, adherent, read-out: Cell Viability IC50", "result": "4 ± 1", "unit": "nM"}, {"measurement": "IC50", "setting": "[9]", "result": "> 7500", "unit": "nM"}, {"measurement": "IC50", "setting": "[10]", "result": "> 7500", "unit": "nM"}, {"measurement": "IC50", "setting": "[11]", "result": "> 7500", "unit": "nM"}, {"measurement": "IC50", "setting": "[12]", "result": "6 ± 3", "unit": "nM"}, {"measurement": "IC50", "setting": "[13]", "result": "4 ± 1", "unit": "nM"}, {"measurement": "IC50", "setting": "[14]", "result": "> 7500", "unit": "nM"}, {"measurement": "IC50", "setting": "[15]", "result": "> 7500", "unit": "nM"}, {"measurement": "IC50", "setting": "[16]", "result": "5 ± 1", "unit": "nM"}, {"measurement": "IC50", "setting": "[17]", "result": "> 7500", "unit": "nM"}, {"measurement": "IC50", "setting": "[18]", "result": "> 7500", "unit": "nM"}, {"measurement": "IC50", "setting": "[19]; second of two lines (FIG. 40G: MIA PaCa-2), read-out: cellular viability IC50", "result": "~9", "unit": "nM"}, {"measurement": "IC50", "setting": "[19]; MIA PaCa-2, pancreas, KRAS p.G12C homozygous, adherent, read-out: Cell Viability IC50", "result": "5 ± 1", "unit": "nM"}, {"measurement": "IC50", "setting": "[20]", "result": "> 7500", "unit": "nM"}, {"measurement": "IC50", "setting": "[21]", "result": "> 7500", "unit": "nM"}, {"measurement": "IC50", "setting": "[22]", "result": "11 ± 8", "unit": "nM"}, {"measurement": "IC50", "setting": "[23]", "result": "6 ± 1", "unit": "nM"}, {"measurement": "IC50", "setting": "[24]", "result": "9 ± 6", "unit": "nM"}, {"measurement": "IC50", "setting": "[25]", "result": "15 ± 7", "unit": "nM"}, {"measurement": "IC50", "setting": "[26]", "result": "> 7500", "unit": "nM"}, {"measurement": "IC50", "setting": "[27]", "result": "> 7500", "unit": "nM"}]}
